Experimental data as given in US7709526B2, “Use of cyclolignans and new cyclolignans” (Biovitrum AB, priority 2001, dated 2010).

Tests used:
Water solubility = type: physicochemical
IGF-1R = IGF-1R (Homo sapiens, UniProt P08069); assay: IGF-1R phosphorylation/autophosphorylation in intact FM55 melanoma cells (immunoprecipitation, Western blotting, OD); type: cell-based; set-up: The cells were then isolated and subjected to immuno-precipitation of the IGF-1R; endogenous in cells; host or cells: FM55 melanoma cells; settings: for Level of IGF-1R phosphorylation in intact cells: OD, control cells = 100%
Sequence of IGF-1R (P08069 31-1367): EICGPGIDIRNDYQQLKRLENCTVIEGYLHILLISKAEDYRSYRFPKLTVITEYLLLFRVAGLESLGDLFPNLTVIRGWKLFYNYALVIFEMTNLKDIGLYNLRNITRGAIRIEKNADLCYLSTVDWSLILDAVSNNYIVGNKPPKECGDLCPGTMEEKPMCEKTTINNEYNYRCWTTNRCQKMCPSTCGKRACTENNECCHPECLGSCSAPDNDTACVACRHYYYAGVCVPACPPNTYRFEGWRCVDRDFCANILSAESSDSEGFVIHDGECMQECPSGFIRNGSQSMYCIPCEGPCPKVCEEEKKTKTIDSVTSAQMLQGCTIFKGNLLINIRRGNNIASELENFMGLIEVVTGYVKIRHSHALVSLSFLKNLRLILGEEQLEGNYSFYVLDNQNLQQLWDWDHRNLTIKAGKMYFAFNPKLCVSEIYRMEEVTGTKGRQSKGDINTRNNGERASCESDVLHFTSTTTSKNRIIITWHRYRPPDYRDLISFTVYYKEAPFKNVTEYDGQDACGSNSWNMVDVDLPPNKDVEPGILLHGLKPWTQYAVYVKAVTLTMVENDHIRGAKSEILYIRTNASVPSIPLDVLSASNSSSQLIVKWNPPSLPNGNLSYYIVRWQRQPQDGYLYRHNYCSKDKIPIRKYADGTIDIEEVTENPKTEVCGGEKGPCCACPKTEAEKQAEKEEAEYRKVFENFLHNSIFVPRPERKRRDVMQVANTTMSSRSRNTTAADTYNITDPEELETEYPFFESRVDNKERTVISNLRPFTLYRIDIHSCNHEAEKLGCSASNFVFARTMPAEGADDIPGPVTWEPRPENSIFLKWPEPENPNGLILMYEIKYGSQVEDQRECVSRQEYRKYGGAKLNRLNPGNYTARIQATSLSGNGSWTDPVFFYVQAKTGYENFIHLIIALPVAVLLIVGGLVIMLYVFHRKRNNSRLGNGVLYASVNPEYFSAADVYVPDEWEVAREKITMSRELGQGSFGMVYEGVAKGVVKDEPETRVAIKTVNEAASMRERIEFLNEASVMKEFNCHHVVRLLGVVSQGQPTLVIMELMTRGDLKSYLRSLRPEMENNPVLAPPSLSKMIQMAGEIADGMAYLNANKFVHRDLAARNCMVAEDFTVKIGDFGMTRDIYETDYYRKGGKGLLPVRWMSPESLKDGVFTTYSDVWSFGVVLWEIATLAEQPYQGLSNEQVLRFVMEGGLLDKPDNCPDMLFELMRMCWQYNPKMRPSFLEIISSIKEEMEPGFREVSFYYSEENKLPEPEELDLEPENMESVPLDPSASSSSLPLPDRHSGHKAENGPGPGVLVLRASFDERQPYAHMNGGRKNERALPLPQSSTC
Experimental: The isolated cells were lyzed in 10 ml ice-cold PBSTDS containing protease inhibitors (Carlberg, M., et al., J Biol Chem 271:17453-17462, 1996). 50 μl protein A or G agarose was added in 1 ml sample and incubated for 15 min at 4° C. on an orbital shaker. After centrifugation for 10 min at 10,000 r/min at 4° C. the supernatant was saved. The protein content was determined by a dye-binding assay with a reagent purchased from Bio-Rad. Bovine serum albumin was used as a standard. 15 μl Protein G Plus agarose and 5 μl anti-IGF-1R were added. After a 3 h incubation at 4° C. on an orbital shaker the precipitate was collected by pulse centrifugation in a micro centrifuge at 14,000×g for 10 s. The supernatant was discarded and the pellet was washed 3 times with PBSTDS.
Protein samples were solved in a 2×-sample buffer containing Laemmli buffer and 0.5% […] and boiled for 5 min at 96° C. Samples were separated by SDS-PAGE with a 4% stacking gel and 7.5% separation gel. Molecular weight markers (Bio Rad, Sweden) were run simultaneously in all experiments.
Following SDS-PAGE the proteins were transferred overnight to nitro-cellulose membranes (Hybond, Amersham, UK) and then blocked for 1 h at room temperature in a solution of 4% skimmed milk powder and 0.02% Tween 20 in PBS, pH 7.5. Incubations with the primary antibodies were performed for 1 h at room temperature, followed by 3 washes with PBS with Tween and incubation with the second antibody for 1 h room temperature. After another 3 washes the membranes were incubated with Streptavidin-labelled horseradish peroxidase for 30 min and then detected using Amersham ECL system (Amersham, UK) The films were scanned by Fluor-S (BioRad).
Melanoma cells (line FM55) were seeded in 6-cm dishes, at a concentration of 10,000 cells/cm^2 in Minimal Essential Medium supplemented with 10% fetal calf serum (FCS). […] Treatment with 0 μM represents untreated controls. The cells were then isolated and subjected to immuno-precipitation of the IGF-1R. The immunoprecipitates, containing purified IGF-1R, were fractionated by gel electrophoresis. Phosphorylation of IGF-1R was detected by an anti-phosphotyrosine antibody using Western blotting. The obtained signals represent phosphorylated IGF-1R and the intensity of signals represents amounts of phosphorylated IGF-1R. Details of the methods used are described above. The intensities are quantified by a scanner, which measures the optical density (OD) of the signals. For the control cells the OD is set at 100%. The blank (OD 0%) represents the background. The results given in Table 1 below are mean values of 3 experiments.
FM 55 melanoma cells were cultured in the same way as described in Experiment 1. When reaching a density of 65,000 cells/cm^2 in the dishes, they were treated for 1 h with 0.05 μM podophyllotoxin, deoxypodophyllotoxin, acetylpodophyllotoxin, epipodophyllotoxin, 4′-demethyl-podophyllotoxin and podophyllotoxone. The cells were then harvested for assay and quantification of IGF-1R autophosphorylation as described above. The values shown in Table 2 represent means of 3 experiments.

[1] = tested on: MCF-7 breast cancer cells; assay: Cell viability (XTT), MCF-7; type: cell-based, human; settings: Homo sapiens, MCF7, 48 h
Experimental: (§1) Cell proliferation kit II (Roche Inc.) is based on calorimetric change of the yellow tetrazolium salt XTT in orange formazan dye by the respiratory chain of viable cells (Roehm, N W, et al., J Immunol Methods 142:257-265, 1991). Cells seeded at a concentration of 5000/well in 100 μl medium in a 96-well plate were treated with different drugs in the given concentration. After 24 or 48 h the cells were incubated, according to the manufacturer's protocol, with XTT labelling mixture. After 4 h the formazan dye is quantified using a scanning multiwell spectrophotometer with a 495-nm filter. The absorbance is directly correlated with number of viable cells. The standard absorbance curve was drawn by means of untreated cells seeded at a concentration of from 1000 to 10 000 cells/well with an increasing rate of 1000 cells/well. All standards and experiments were performed in triplicates.
5 different types of cell lines were seeded in 96-well plates (medium volume in a well was 100 μl), at a concentration of 10,000 cells/cm^2 in Minimal Essential Medium supplemented with fetal calf serum. When the cells had reached a concentration of 65,000 cells/cm^2, they were treated with different doses of podophyllotoxin and deoxypodophyllotoxin for 48 h. Cell viability was then assayed (see above). […]

[2] = tested on: HL60 acute myeloid leukemia cells; assay: Viability of leukemia cells, HL60; type: cell-based, human; settings: Homo sapiens, HL-60; HL60, 72 h; read-out: IC50 for viability of leukemia cell lines
Experimental: The human chronic myeloid leukemia K562/S and K562/Vcr30 lines and the acute myeloid leukemia cell lines HL60/0 and HL60/Nov were obtained from ATCC. The K562/S and HL60/0 are wild type (non-resistant) cells, whereas K562/Vcr30 and HL60/Nov are cytostatic-resistant sublines. All leukemia cell lines were cultured in RPMI 1640 medium supplemented with 10% fetal bovine serum and with 2 mM glutamine, 1% benzyl-penicillin and streptomycin. The cells were grown in tissue culture flasks maintained at 95% air/5% CO2 atmosphere at 37° C. in a humidified incubator. For the experiments 25,000 cells were cultured in 60-mm plastic dishes or 96-well plastic plates. The experiments on leukemia cells were performed in collaboration with Associate professor Sigurd Vitols, Department of Pharmacology, Karolinska Hospital (Stockholm, Sweden).
as §1
The leukemia cell lines K562/S, K562/Vcr 30, HL60/0 and HL60/Nov were proven to express the IGF-1R. This was assayed by Western blotting analysis, as described in Methods and Experiment 1 and 2. The 4 leukemia cell lines were seeded in 96-well plates (medium volume in a well was 100 μl), in RPMI40 medium supplemented with fetal calf serum. After 24 h podophyllotoxin, deoxypodophyllotoxin and other derivatives were added at different concentrations for 72 h. Cell viability was then assayed (see above). IC50 values for each inhibitor and cell lines are shown below (Table 5). The results are based on 3 different experiments.

COc1cc([C@@H]2c3cc4c(cc3[C@H](O)[C@H]3COC(=O)[C@H]23)OCO4)cc(OC)c1OC [Podophyllotoxin, podophyllotoxin]
water solubility (Water solubility): 100 to 200 µM
inhibition of IGF-1R phosphorylation (in words) (IGF-1R; FM55 cells, 0.05 μM, 1 h): potent inhibitors
Inhibitory effect on IGF-1R autophosphorylation in intact cells in relation to podophyllotoxin, Relative potency (IGF-1R; FM55 cells, 0.05 μM, 1 h, podophyllotoxin = 1, mean of 3): 1
Level of IGF-1R phosphorylation in intact cells (IGF-1R; FM55 cells, 1 μM, 1 h, mean of 3): 8%
Level of IGF-1R phosphorylation in intact cells (IGF-1R; FM55 cells, 15 μM, 1 h, mean of 3): 4%
Level of IGF-1R phosphorylation in intact cells (IGF-1R; FM55 cells, 60 μM, 1 h, mean of 3): 2%
effect on IGF-1R phosphorylation (in words) (IGF-1R; FM55 cells, 1, 15, 60 μM, genistein statement at 60 μM): almost completely blocks
concentration sufficient to inactivate the IGF-1R, fold lower than for the anti-microtubule effect (IGF-1R; compared to anti-microtubule effect): 100 fold
IC50 [1]: 70 nM
IC50 [2]: 3 nM
